According to patent US20060069132A1, “Azolecarboxamide herbicides” (priority 2004, published 2006):

Columns and labels:
lambsquarters (CHEAL) = test: Test J Compounds 2 and 6 alone and in combination with other herbicides, foliage spray; format: in vivo, Chenopodium album; parameters: key: % herbicidal effect (observed); conditions: applied alone
Description: Colby's Equation was used to calculate the expected additive herbicidal effect of the mixtures of Compound 6 with Harmony® Extra (i.e. a 2:1 mixture by weight of thifensulfuron-methyl and tribenuron-methyl). […]
(§1) Seeds of test plants consisting of barnyardgrass (ECHCG; Echinochloa crus-galli (L.) Beauv.), blackgrass (ALOMY; Alopecurus myosuroides Huds.), Surinam grass (BRADC; Urochloa decumbens (Staph) R. D. Webster, previously named Brachiaria decumbens Stapf), cocklebur (XANST, Xanthium strumarium L.), corn (ZEAMD, Zea mays L. cv. ‘Pioneer 33G26’), large crabgrass (DIGSA, Digitaria sanguinalis (L.) Scop.), giant foxtail (SETFA, Setaria faberi Herrm.), lambsquarters (CHEAL, Chenopodium album L.), morningglory (IPOCO, Ipomoea coccinea L.), pigweed (AMARE, Amaranthus retroflexus L.), velvetleaf (ABUTH, Abutilon theophrasti Medik.) wheat (TRZAS, Triticum aestivum L. cv. ‘Recital’) and wild oat (AVEFA, Avena fatua L.) were planted in Redi-Earth® planting medium (Scotts Company, 14111 Scottslawn Road, Marysville, Ohio 43041) comprising spaghnum peat moss and vermiculite. […] Also listed in Table J are the expected effects for the mixtures calculated using Colby's Equation.

[1] = system: corn (maize) cv. Pioneer 33G26; test: Test G safening on corn by naphthalic anhydride seed treatment, preemergence; format: in vivo, Zea mays
Description: This test evaluated the safening of compounds of the invention on corn (maize; Zea mays L.) cv. ‘Pioneer 33G26’ by seed treatment with naphthalic anhydride (1,8-naphthalic anhydride). All corn seed had been first treated with fludioxonil and metaxyl applied at the manufacturer's recommended rate as per the Pioneer 33G26 label. Some of the corn seed were subsequently also treated with naphthalic anhydride as a 1% by weight seed dressing. The corn seed were planted in pots containing pasteurized Sassafras sandy loam soil, and then treatments were applied preemergence the same day. Treatments were applied by spraying the test compounds formulated in a non-phytotoxic solvent mixture, using a flat fan nozzle and a spray volume of 280 L/ha. The treatments were triply replicated and the results subsequently averaged. The pots were placed on a greenhouse bench using a complete randomized block design except for the first replicate, which was unrandomized. The plants were grown in the greenhouse and watered as needed with a dilute nutrient solution containing 200 ppm of N. Illumination was daylight supplemented by artificial sources to maintaining a photoperiod of 16 hours. The temperature was maintained at 28±2° C. during the day and 23±2° C. at night. The plant response was visually rated 25 days after treatment in comparison to untreated controls using a scale of 0 to 100, with 0 representing no effect and 100 representing complete plant death.

pigweed (AMARE) = test: Test J Compounds 2 and 6 alone and in combination with other herbicides, foliage spray; format: in vivo, Amaranthus retroflexus; parameters: key to AMARE Obsd.: 0 = no effect, 100 = complete control; conditions: for AMARE Obsd.: applied alone
Description: Colby's Equation was used to calculate the expected additive herbicidal effect of the mixtures of Compound 6 with Harmony® Extra (i.e. a 2:1 mixture by weight of thifensulfuron-methyl and tribenuron-methyl). Colby's Equation (Colby, S. R. “Calculating Synergistic and Antagonistic Responses of Herbicide Combinations,” Weeds, 15(1), pp 20-22 (1967)) calculates the expected additive effect of herbicidal mixtures, and for two active ingredients is of the form: Pa+b=Pa+Pb−(PaPb/100) wherein • Pa+b is the percentage effect of the mixture expected from additive contribution of the individual components, • Pa is the observed percentage effect of the first active ingredient at the same use rate as in the mixture, and • Pb is the observed percentage effect of the second active ingredient at the same use rate as in the mixture.
as §1, with “vermiculite. Seeds of small-seeded species were planted about 1 cm deep; larger seeds were planted about 2.5 cm deep. Plants were grown in a greenhouse using supplemental lighting to maintain a photoperiod of about 14 hours; daytime and nighttime temperatures were about 24-30° C. and 22-25° C., respectively.” for “vermiculite.”

wild buckwheat = test: Test F pre-/postemergence herbicide test; format: in vivo, Polygonum convolvulus
Description: (§2) Seeds of plant species selected from annual blugrass (Poa annua L.), blackgrass (Alopecurus myosuroides Huds.), catchweed bedstraw (Gallium aparine L.), common chickweed (Stellaria media (L.) Vill./Cyr.), downy bromegrass (Bromus tectorum L.), green foxtail (Setaria viridis (L.) Beauv.), Italian ryegrass (Lolium multiflorum Lam.), kochia (Kochia scoparia (L.). Schrad.), lambsquarters (Chenopodium album L.), littleseed canarygrass (Phalaris minor Retz.), pigweed (Amaranthus retroflexus L.), Russian thistle (Salsola kali L. ssp. Ruthenica (Iljin) Soo), wild buckwheat (Polygonum convolvulus L.), wild mustard (Sinapis arvensis L.), wild oat (Avena fatua L.), windgrass (Apera spica-venti (L.) Beauv.), winter barley (Hordeum vulgare L.), and wheat (Triticum aestivum L.) were planted and treated preemergence with test chemicals formulated in a non-phytotoxic solvent mixture which included a surfactant.
(§3) At the same time, plants selected from these crop and weed species were treated with postemergence applications of some of the test chemicals formulated in the same manner. Plants ranged in height from 2 to 18 cm (1- to 4-leaf stage) for postemergence treatments. Treated plants and controls were maintained in a greenhouse for 12 to 14 days, after which time all species were compared to controls and visually evaluated. Plant response ratings, summarized in Table F, are based on a scale of 0 to 100 where 0 is no effect and 100 is complete control. A dash (-) response means no test result.

kochia = test: Test F pre-/postemergence herbicide test; format: in vivo, Kochia scoparia
Description: as §2, §3

CCn1nc(C(C)(C)C)cc1C(=O)Nc1cc(C(=O)N(C)C)ccc1F [Compound 6, N-[5-[(dimethylamino)carbonyl]-2-fluorophenyl]-3-(1,1-dimethylethyl)-1-ethyl-1H-pyrazole-5-carboxamide]
CHEAL Obsd. (lambsquarters (CHEAL); 62 g a.i./ha): 43
CHEAL Obsd. (lambsquarters (CHEAL); 125 g a.i./ha): 68
Response of corn, With 1% naphthalic anhydride seed treatment ([1]; 62 g a.i./ha): 60
Response of corn, Without naphthalic anhydride seed treatment ([1]; 62 g a.i./ha): 65
Response of corn, With 1% naphthalic anhydride seed treatment ([1]; 125 g a.i./ha): 62
Response of corn, Without naphthalic anhydride seed treatment ([1]; 125 g a.i./ha): 68
Response of corn, With 1% naphthalic anhydride seed treatment ([1]; 250 g a.i./ha): 78
Response of corn, Without naphthalic anhydride seed treatment ([1]; 250 g a.i./ha): 88
Response of corn, With 1% naphthalic anhydride seed treatment ([1]; 500 g a.i./ha): 70
Response of corn, Without naphthalic anhydride seed treatment ([1]; 500 g a.i./ha): 92
AMARE Obsd. (pigweed (AMARE); 62 g a.i./ha): 28
AMARE Obsd. (pigweed (AMARE); 125 g a.i./ha): 60
observed effect of mixture compared with additive effect expected from Colby's Equation (pigweed (AMARE); mixture with atrazine, pigweed, foliage spray, 15 days after treatment): greater than additive

CCn1nc(C(C)(C)C)cc1C(=O)Nc1cc(C(=O)OC(C)C)c(F)cc1F [Compound 248]
Plant response rating (0-100), Buckwheat, Wild (wild buckwheat; Postemergence, 31 g ai/ha): 50
Plant response rating (0-100), Buckwheat, Wild (wild buckwheat; Postemergence, 62 g ai/ha): 50
Plant response rating (0-100), Buckwheat, Wild (wild buckwheat; Postemergence, 125 g ai/ha): 50
Plant response rating (0-100), Buckwheat, Wild (wild buckwheat; Postemergence, 250 g ai/ha): 60
Plant response rating (0-100), Buckwheat, Wild (wild buckwheat; Preemergence, 31 g ai/ha): 30
Plant response rating (0-100), Buckwheat, Wild (wild buckwheat; Preemergence, 62 g ai/ha): 40
Plant response rating (0-100), Buckwheat, Wild (wild buckwheat; Preemergence, 125 g ai/ha): 45
Plant response rating (0-100), Buckwheat, Wild (wild buckwheat; Preemergence, 250 g ai/ha): 60
Plant response rating (0-100), Kochia (kochia; Postemergence, 31 g ai/ha): 60
Plant response rating (0-100), Kochia (kochia; Postemergence, 62 g ai/ha): 60
Plant response rating (0-100), Kochia (kochia; Postemergence, 125 g ai/ha): 65
Plant response rating (0-100), Kochia (kochia; Postemergence, 250 g ai/ha): 65
Plant response rating (0-100), Kochia (kochia; Preemergence, 31 g ai/ha): 50
Plant response rating (0-100), Kochia (kochia; Preemergence, 62 g ai/ha): 60
Plant response rating (0-100), Kochia (kochia; Preemergence, 125 g ai/ha): 65
Plant response rating (0-100), Kochia (kochia; Preemergence, 250 g ai/ha): 100
